Patent publication US10017463B2, “Inhibitors of deubiquitinating proteases” (Brandeis University, priority 2014, dated 2018)
Like-named read-outs stand apart in the source and are kept apart here.

Columns and labels:
K562 cells = experiment: Annexin V-FITC/PI apoptosis assay, K562; assay type: cell-based; settings: 15 or 30 μM, 24 h
Procedure: (§1) (each point is shown as mean+/−s.d. of 2 replicates). Panel A is a bar graph showing the data for HeLa cells (30 μM); Panel B is a bar graph showing the data for K562 (30 μM); Panel C is a bar graph showing the data for K562 (15 μM).
(§2) Since K562 cells are dependent upon Bcr-Abl for survival, it was predicted that these cells would also be susceptible to TU compounds. However, K562 cells gave a very weak signal in the Alamar Blue® assay. In lieu of the Alamar Blue assay, an apoptosis assay was used to show susceptibility. This assay uses fluorescein-modified Annexin V to detect phosphatidyl serine (PS) on the cell surface. See Vermes et al., J. Immon. Meth. 184, 39-51 (1995). PS is typically expressed on the inner leaflet of the cell membrane. However in the early stages of apoptosis, PS translocates to the outer leaflet and can be bound by Annexin V. Thus, during apoptosis cells will become greener in the presence of Annexin V-Fluorescine.

[1] = target: T1, USP7 catalytic domain (USP7CD) (Homo sapiens, UniProt Q93009); experiment: USP7 catalytic domain, Cy5-Ub-VME activity profiling; assay type: biochemical; settings: at 12.5 μM
T1 construct: USP7 catalytic domain (USP7CD)
T1 sequence (Q93009 214-521 limits assumed, species assumed): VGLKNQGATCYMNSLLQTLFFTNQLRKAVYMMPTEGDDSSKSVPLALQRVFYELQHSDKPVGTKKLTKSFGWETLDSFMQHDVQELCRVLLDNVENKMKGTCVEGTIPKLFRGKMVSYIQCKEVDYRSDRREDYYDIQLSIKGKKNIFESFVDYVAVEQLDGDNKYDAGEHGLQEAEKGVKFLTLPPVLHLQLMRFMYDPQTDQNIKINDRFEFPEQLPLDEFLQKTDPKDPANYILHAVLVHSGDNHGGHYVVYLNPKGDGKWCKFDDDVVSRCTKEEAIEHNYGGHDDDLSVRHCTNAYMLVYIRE
Procedure: Panel A is an image showing that purified recombinant USP9x (7 nM) was treated with the stated compound at 50 μM for 19 min prior to addition of Cy5-Ub-VME for 5 min, then the mixture was resolved by S.D.S-PAGE and analyzed on a typhoon imager. Panel B is an image of an immunoblot showing purified recombinant USP9x (7 nM) and USP7CD (20 nM) were treated with the stated compound at the stated concentration for 19 min prior to addition of Cy5-Ub-VME for 5 min then the mixture was resolved by S.D.S-PAGE and analyzed on a Typhoon imager.
In addition, the amount of free inhibitor is unknown and thus the true kon could be much higher.

UCHL3 = target: T2, UCHL3 (Mus musculus, UniProt Q9JKB1); experiment: Cy5-Ub-VME activity profiling of treated BaF3/p210 cells, UCHL3; assay type: cell-based, murine; settings: 50 μM, 4 h
T2 construct: endogenous in cells; host or cells: BaF3/p210
T2 sequence (Q9JKB1 1-230): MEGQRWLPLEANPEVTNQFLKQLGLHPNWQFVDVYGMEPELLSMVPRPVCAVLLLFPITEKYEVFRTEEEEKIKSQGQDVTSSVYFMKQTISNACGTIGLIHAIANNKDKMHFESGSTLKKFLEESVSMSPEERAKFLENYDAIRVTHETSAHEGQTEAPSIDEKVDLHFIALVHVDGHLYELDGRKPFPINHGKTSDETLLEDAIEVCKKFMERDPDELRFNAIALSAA
Procedure: (§3) FIG. 9 has two panels (A and B) depicting data showing that TUs inhibit DUBs in cells. BaF3/p210 cells were incubated with the stated concentration of compound for 4 h. After this time cells were lysed using beads, lysates were normalized, then exposed to Cy5-Ub-VME for 5 min. After quenching, lysates were resolved by SDS-PAGE, analyzed on typhoon, then stained by Coomassie. Panel A is an image of the SDS-PAGE gel visualized via Typhoon imager. Panel B is an image of the SDS PAGE gel stained with Coomassie.
(§4) The increased promiscuity of the inhibitors when the experiment is carried out in cells likely stems from the increased assay time (4 h vs 20 min) coupled with the slow on rates of the inhibitors and their targets.

BaF3/p210 cells = experiment: Proliferation assay (Alamar Blue), BaF3/p210; assay type: cell-based, murine; settings: for EC50: Mus musculus, BaF3, fresh media with compound added after 24 h, 24 h further growth, read-out: EC50 (viable cells)
Source text: This cell line consists of engineered murine leukemia cells that ectopically express Bcr-Abl. Parent BaF3 cells require exogenous interleukin 3 (IL3) because IL3 stimulates expression of MCL1, which is required for survival. However, BaF3/p210 cells require no exogenous interleukins but need Bcr-Abl for survival.

HeLa cells = experiment: Annexin V-FITC/PI apoptosis assay, HeLa; assay type: cell-based; settings: 15 or 30 μM, 24 h
Procedure: as §1, §2

Bcr-Abl = Bcr-Abl immunoblot in BaF3/p210 cells; assay type: cell-based, murine; settings: 4 h
Procedure: After this time cells were lysed and sonicated in S.D.S. Whole cell lysates were analyzed for Bcr-Abl and tubulin in triplicate. Panel B is a bar graph showing the quantitation of blots in Panel A. Panel C is an image of an immunoblot showing BaF3 cells were treated with various concentrations of TU50 in triplicate for 4 h, and then whole cell lysates were analyzed for Bcr-Abl and tubulin. Panel D is an image of an immunoblot similar to the experiment in Panel C but using TU46. Panel E is an image of an immunoblot similar to the experiment in Panel D but using TU49. Panel F is a plot showing the quantification of blots in Panel C, Panel D, and Panel E.
Proliferation inhibition/apoptosis assays and lysate activity profiling were all consistent with USP9x inhibition. Next, whether cell death in BaF3/p210 cells occurred through degradation of Bcr-Abl was validated. […] Encouragingly, the EC50 for Bcr-Abl degradation was 8±2 μM for TU50, which is within 2 fold of the proliferation inhibition EC50 obtained above (FIG. 7, Panel C).

G76VUb-GFP in COS1 cells = experiment: UbG76V-GFP proteasome assay in COS1 cells; assay type: cell-based
Procedure: COS1 cells at approx. 75% confluence in a 48 well plate were transiently transfected with a plasmid encoding G76VUb-GFP using Mirus 2020 reagent. After this time media with either compound in DMSO or 1% DMSO was added to the cells and the cells were incubated for 8 h. After this time, cells were trypsinized, diluted with 1% FBS in PBS (FACS buffer) then centrifuged at 700 g. After this time cells on ice were treated with FACS buffer containing propidium iodide (0.05 mg/mL). The GFP (indicating proteasome activity) and red fluorescence (dye exclusion showing acute toxicity) were subsequently measured by FACS.

DUBs = experiment: Cy5-Ub-VME activity profiling of treated BaF3/p210 cells; assay type: cell-based, murine; settings: 50 μM, 4 h
Procedure: as §3
Panel A is the chemical structure of TU71. Panel B is an image of an immunoblot showing a K562 cell was treated with TU71 for 15 min at which time HAUb-VS was added. After an additional 15 min, aliquots were quenched in reducing loading buffer and analyzed by SDS-PAGE and HA blot. […] BaF3/p21 0 cells were treated with TU71 for 2.5 h (Panel C) or 4 h (Panel D). Cells were harvested, lysed and incubated (0.7 mg/mL protein) with 250 nM Cy5-UbVME for 5 min at 37° C. […] Panel E is an image of an immunoblot showing BaF3/p210 cells were incubated with TU71 for 4 h. The cells were harvested, lysed, analyzed by SDS-PAGE and immunoblotted as indicated. “cPARP” indicates the caspase cleavage of product of PARP and is indicative of apoptosis. Panel F is a bar graph showing data representative of mean±range of two independent experiments, one performed in duplicate of the blot depicted in Panel E.
as §4

[2] = whole cell lysates sonicated, read-out: EC50 for Bcr-Abl degradation/knockdown

| SMILES | apoptosis and necrosis in K562 (K562 cells) | inhibition of USP7CD [1] | effect on UCHL3 (UCHL3) | growth inhibition of BaF3/p210 cells (BaF3/p210 cells) | selectivity for BaF3/p210 over NIH3T3 cells (BaF3/p210 cells) | selectivity for BaF3/p210 over other cancer lines (BaF3/p210 cells) | EC50 (BaF3/p210 cells) [µM] | apoptosis in HeLa (HeLa cells) | EC50 (Bcr-Abl; unsonicated, read-out: EC50 for Bcr-Abl knockdown) [µM] | EC50 (Bcr-Abl; [2]) [µM] | inhibition of the proteasome in G76VUb-GFP assay (G76VUb-GFP in COS1 cells; COS1, 8 h) | GFP signal (G76VUb-GFP in COS1 cells; COS1, at 50 μM) | Cy5-Ub-VME labelled bands after treatment of cells (DUBs) | GFP signal (G76VUb-GFP in COS1 cells; COS1, 8 h) |
| --- | --- | --- | --- | --- | --- | --- | --- | --- | --- | --- | --- | --- | --- | --- |
| CC(C)(C)OC(=O)NCCc1ccc(N=C=S)cc1 [TU46] | large increase in both apoptosis and necrosis | little inhibition | relatively unaffected | good growth inhibition | over a ten-fold selectivity | at least a five-fold selectivity | 11 | no apoptosis was detected | 15 ± 7 | 9 ± 3 | did not inhibit | slight increase in GFP signal | decrease in a number of bands in addition to the band corresponding to USP9x | – |
| O=C(NCc1ccc(N=C=S)cc1)OCc1ccccc1 [TU49] | large increase in both apoptosis and necrosis | little inhibition | relatively unaffected | good growth inhibition | – | – | – | no apoptosis was detected | – | 9 ± 5 | did not inhibit | – | decrease in a number of bands in addition to the band corresponding to USP9x | decreased the GFP signal |
| CC(C)(C)OC(=O)NCc1cccc(N=C=S)c1 [TU50] | large increase in both apoptosis and necrosis | little inhibition | relatively unaffected | good growth inhibition | over a ten-fold selectivity | at least a five-fold selectivity | 16 | no apoptosis was detected | – | 8 ± 2 | did not inhibit | – | decrease in a number of bands in addition to the band corresponding to USP9x | decreased the GFP signal |
